Reference: patent US11576979B2, “Pyrrolobenzodiazepine prodrugs and antibody conjugates thereof” (GENENTECH, INC., priority 2016, dated 2023)

How the values were obtained:
[1] = GSH adduct formation and stability of quinones; assay type: physicochemical; conditions: 15 mM GSH; for % Rem. (percent remaining after 3 hours): 25 uM, pH 7.0, 37 C; for GSH Adduct / Degr (degradation): 3 hours
Protocol: For degradation analysis, the compounds were incubated at 25 μM with 15 mM GSH in 200 mM Tris buffer pH 7.0 containing 5% methanol at 37° C. for 3 hours. The control incubations were conducted without GSH. The samples were analyzed by LC/MS on Sciex TripleTOF 5600 on a Hypersil Gold C18 column (100×2.1, 1.9 μM, Thermo Scientific). The column was eluted by a gradient of buffer A (0.1% formic acid in 10 mM ammonium acetate) to buffer B (0.1% formic acid in 10 mM ammonium acetate in 90% acetonitrile), 5% B 0-0.5 min, 5-25% B 0.5-8 min, 25-75% B 8-13 min, and 75-95% B 13-13.5 min, 95% B 13.5-14.5 min, 95-5% B 14.5-15 min at 0.4 mL/min. All products were separated and characterized by LC/MS/MS in a positive ESI ion mode. Full scan accurate mass peak areas were used to estimate relative abundance of each component.

DT Diaphorase = target: T1, DT Diaphorase (Homo sapiens, UniProt P15559); assay: in vitro DT diaphorase activated drug release assay (NADPH depletion); assay type: biochemical; conditions: 90 min
T1 construct: purchased Sigma D1315
T1 sequence (P15559 whole entry): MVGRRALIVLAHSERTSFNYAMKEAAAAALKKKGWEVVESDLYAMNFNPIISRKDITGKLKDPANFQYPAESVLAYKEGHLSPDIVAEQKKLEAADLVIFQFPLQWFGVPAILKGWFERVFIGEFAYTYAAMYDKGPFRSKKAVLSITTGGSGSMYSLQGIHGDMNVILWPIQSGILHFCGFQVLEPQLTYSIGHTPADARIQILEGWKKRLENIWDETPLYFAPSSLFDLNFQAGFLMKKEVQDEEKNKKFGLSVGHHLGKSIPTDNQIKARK
Protocol: An in vitro DT diaphorase activated drug release assay was used to measure NADPH depletion. DT diaphorase activated release of Norfloxacin and Payload (PBD) was measured by the in vitro depletion of NADPH. The assay method was modified from the absorbance measurement of NADPH at A340 (Osman et. al, Chemico-Biological Interactions 147 (2004) 99-108) due to the interference of compounds. The depletion of NADPH was measured by monitoring the decrease of fluorescence intensity of NADPH at 480 nm after being excited at […]. […] Prior to assay, dilute the stock to 1 mM as the 5× working solution; (5) DT Diaphorase specific Inhibitor: prepare 40 mM stock of Dicumarol (Sigma, Cat #M1390-5G, MW=336.29) in 0.13 N NaOH, stored at 4° C. Dilute the stock to 250 uM as the 5× working solution; (6) Compounds: dilute the Norfloxacin and PBD conjugated compounds in assay buffer to 250 uM as the 5× working solution; and (7) 384 well black plate with clear bottom. For the assay procedure: (1) The reaction mix containing 0.5 uM DT-D, 50 uM compound, […] NADPH was set up in a 384 well plate at 50 ul/well. For the control with DT Diaphorase inhibitor, Dicumarol was added in the reaction mix at final 50 uM for each compound. Reaction mix containing NADPH and compound only was also added as the baseline controls. The DT Diaphorase was added in the last step; and (2) The reaction mixes were incubated at room temperature for 5, 30, 90 min. The fluorescence intensity (RFU) of DNAPH was recorded on M1000 plate reader (Tecan) with excitation at 340 nm and emission at 480 nm. For data analysis, data was analyzed and plotted using Prism GraphPad 6. The depletion of NADPH was calculated by the formula below at reaction time point at 90 min wherein: % NADPH depletion=[…].

A2058 = assay: CellTiter-Glo toxicity, 4 days (Example 9); assay type: cell-based; conditions: Homo sapiens, A2058, 96 h, 4 days of drug incubation; Table 7A
Protocol: (§1) The toxicity of various PBD monomer disulfide prodrugs and PBD dimer disulfide prodrugs was evaluated on UACC-257, Igrov-1 and A2058 cell lines. Cells were seeded in 384-well plate and treated with drug 24 hours later. After 4 days of drug incubation, the cell viability was determined using Promega CellTiter-Glo luminescent reagent, which measures ATP level (an indirect measure of cell number). The luminescent intensity was measured on PerkinElmer Envision reader. The relative cell viability was calculated by normalizing to non-drug treatment control and was graphed using KleidaGraph software package. IC50 value was determined as the concentration to obtain 50% of the maximum cell killing.

UACC-257 = assay: CellTiter-Glo toxicity, 4 days (Example 9); assay type: cell-based; conditions: Homo sapiens, UACC-257, 96 h, 4 days of drug incubation; Table 7A
Protocol: as §1

Igrov-1 = assay: CellTiter-Glo toxicity, 4 days (Example 9); assay type: cell-based; conditions: Homo sapiens, IGROV-1, 96 h, 4 days of drug incubation; Table 7A
Protocol: as §1

[2] = Disulfide cleavage by glutathione (GSH), LC/MS; assay type: physicochemical; conditions: 15 uM compound, 4 mM GSH, pH 7.0, 37 C
Protocol: (§2) For disulfide cleavage determination, the compounds were incubated at 15 μM with 0.2 mM cysteine or 4 mM GSH in 100 mM Tris buffer pH 7.0 containing 5% methanol at 37° C. Aliquots were taken at specified time points and the samples were analyzed by LC/MS on Sciex TripleTOF 5600 on a Hypersil Gold C18 column (100×2.1, 1.9 Thermo Scientific). The column was eluted by a gradient of buffer A (0.1% formic acid in 10 mM ammonium acetate) to buffer B (0.1% formic acid in 10 mM ammonium acetate in 90% acetonitrile), 5% B 0-0.5 min, 5-25% B 0.5-8 min, 25-75% B 8-13 min, and 75-95% B 13-13.5 min, 95% B 13.5-14.5 min, 95-5% B 14.5-15 min at 0.4 mL/min. All products were separated and characterized by LC/MS/MS in a positive ESI ion mode. All analytes had the protonated molecular MH+ as the major species with little source fragmentation. Full scan accurate mass peak areas were used to estimate relative abundance of each component.

[3] = Disulfide cleavage by cysteine, LC/MS; assay type: physicochemical; conditions: 15 uM compound, 0.2 mM cysteine, pH 7.0, 37 C
Protocol: as §2

KPL-4 = assay: CELLTITER GLO cell proliferation assay (Example 6); assay type: cell-based; conditions: KPL4, read-out: IC50 potency KPL-4, Table 4; data in parenthesis = repeat evaluations
Protocol: (§3) The toxicity of PBD monomer disulfide prodrugs and diaphorase prodrugs were evaluated against KPL-4, WSU-DLCL2, HCT-116, HCC1395 and Jurkat cell cultures. […] KPL-4 cells further have a high expression of DTD on the order of about 839 nRPKM (where nRPKM refers to normalized reads per Kb of transcript length per million mapped read).
(§4) Potency of the disulfide and DT-diaphorase prodrugs was measured by a cell proliferation assay employing the following protocol (CELLTITER GLO™ Luminescent Cell Viability Assay, Promega Corp.). First, an aliquot of 40 ul of cell culture containing about 8000 cells of WSU-DLCL2 cells (low NQO1 gene and GSH level), 4000 cells of KPL-4 (high NQO1 gene and GSH level), HCT-116 cells, HCC1395 cells or Jurkat cells in RPMI-1640 culture medium (supplemented with 10% fetal bovine serum, 2 mM glutamine, 50 uM cystine, and 0.015 g/L L-methionine) was deposited in each well of a 384-well flat clear bottom white polystyrene tissue culture-treated microplates (Corning, N.Y.). Second, control wells were prepared containing medium with and without cells. Third, compounds with and without disulfide or DT-diaphorase prodrugs (n=3) were added to the experimental wells using ECHO acoustic liquid handling technology (Labcyte Inc, Sunnyvale, Calif.) to create a 10-point dose-response curve in triplicate with 1:3× serial dilution. Fourth, cells were cultured in a humidified incubator set at 37° C. and maintaining an atmosphere of 5% CO2. Fifth, the plates were equilibrated to room temperature for approximately 30 minutes. Sixth, a volume of CELLTITER GLO™ Reagent equal to the volume of cell culture medium present in each well was added. Seventh, the contents were mixed for 10 minutes on an orbital shaker in the dark to induce cell lysis. Eighth, the plate was incubated at room temperature for 30 minutes to stabilize the luminescence signal. Ninth, luminescence was recorded and reported in graphs as % activity where RLU (relative luminescence units) was normalized to controls (no compound control minus no cell control). Tenth, data was plotted as individual points for each replicate (n=3) for each antibody as the mean of luminescence for each set of replicates, with standard deviation error bars.

WSU-DLCL2 = assay: CELLTITER GLO cell proliferation assay (Example 6); assay type: cell-based; conditions: Homo sapiens, WSUDLCL2, read-out: IC50 potency WSU-DLCL2, Table 4; data in parenthesis = repeat evaluations
Protocol: as §3, §4

Row | SMILES | % Rem. (percent remaining after 3 hours) [1] | NADPH Dep. (NADPH depletion at 90 minutes) (DT Diaphorase) | Degr (degradation) [1] | other results
1 | COC1=CC(=O)c2c(c(CO)cn2C)C1=O | 90% | 95.99% | – | GSH Adduct [1]: yes
2 | COC1=CC(=O)c2c(c(C=O)c(CO)n2C)C1=O [2-(hydroxymethyl)-5-methoxy-1-methyl-4,7-dioxo-4,7-dihydro-1H-indole-3-carbaldehyde] | 0% | 96.92% | yes | –
3 | CCn1cc(C(=O)O)c(=O)c2cc(F)c(N3CCN(C(=O)OCc4cc5c(n4C)C(=O)C=C(OC)C5=O)CC3)cc21 | 37.6% | 53.23% | yes | –
4 | COC1=CC(=O)c2c(c(CO)c(C)n2C)C1=O | 87% | 74.83% | – | GSH Adduct [1]: yes
5 | C=C1C[C@H]2C(O)N(C(=O)OCC3(SSCC)CCCC3)c3cc(OC)c(OC)cc3C(=O)N2C1 (some centres unmarked) [PBD monomer disulfide prodrug 5] | – | – | – | IC50 (A2058): 395 nM; IC50 (UACC-257): 892 nM; IC50 (Igrov-1): 765 nM; % Remaining at 24 h by GSH [2]: 65.9%; % Remaining at 24 h by Cys [3]: 90.9%; IC50 (KPL-4): 1060 nM; IC50 (WSU-DLCL2): 1350 nM
6 | C=C1C[C@H]2C(O)N(C(=O)OCc3ccc(NC(=O)OCc4cc5c(n4C)C(=O)C=C(OC)C5=O)cc3)c3cc(OC)c(OC)cc3C(=O)N2C1 (some centres unmarked) [PBD monomer diaphorase prodrug 3] | – | >90% at | – | IC50 (KPL-4): 351 nM; IC50 (WSU-DLCL2): 443 nM
7 | CCn1cc(C(=O)O)c(=O)c2cc(F)c(N3CCN(C(=O)OCc4c(C)c5c(n4C)C(=O)C=C(OC)C5=O)CC3)cc21 | 55.5% | 26.1% | yes | –
8 | CCn1cc(C(=O)O)c(=O)c2cc(F)c(N3CCN(C(=O)OCc4c(C(=O)OC)c5c(n4C)C(=O)C=C(OC)C5=O)CC3)cc21 | 100% | 17.4% | – | –
9 | COC(=O)c1c2c(n(C)c1CO)C(=O)C=C(OC)C2=O [methyl 2-(hydroxymethyl)-5-methoxy-1-methyl-4,7-dioxo-4,7-dihydro-1H-indole-3-carboxylate] | 100% | None | – | –
10 | CCn1cc(C(=O)O)c(=O)c2cc(F)c(N3CCN(C(=O)OCc4ccc(NC(=O)OCc5cc6c(n5C)C(=O)C=C(OC)C6=O)cc4)CC3)cc21 | 63% | 94/0 | yes | –
11 | C=C1C[C@H]2C(O)N(C(=O)OCc3ccc(SSC(C)(C)C)cc3)c3cc(OC)c(OC)cc3C(=O)N2C1 (some centres unmarked) [PBD monomer disulfide prodrug 6] | – | – | – | IC50 (A2058): 567 nM; IC50 (UACC-257): 497 nM; IC50 (Igrov-1): 3260 nM; % Remaining at 24 h by GSH [2]: 2.1%; % Remaining at 24 h by Cys [3]: 85.4%; IC50 (KPL-4): 806 nM; IC50 (WSU-DLCL2): 2810 nM
12 | COC1=C(C)C(=O)c2c(c(C)c(CO)n2C)C1=O | 92.5% | None | – | GSH Adduct [1]: yes
13 | CCn1cc(C(=O)O)c(=O)c2cc(F)c(N3CCN(C(=O)OCc4cn(C)c5c4C(=O)C(OC)=CC5=O)CC3)cc21 | – | 85.2% | – | –
14 | CCn1cc(C(=O)O)c(=O)c2cc(F)c(N3CCN(C(=O)OCc4c5c(n(C)c4C)C(=O)C=C(OC)C5=O)CC3)cc21 | 50% | 2.01% | yes | –
15 | C=C1C[C@H]2C(O)N(C(=O)OCc3ccccc3)c3cc(OC)c(OC)cc3C(=O)N2C1 (some centres unmarked) [PBD monomer control 2, reference compound] | – | – | – | IC50 (A2058): > 20000 nM; IC50 (UACC-257): > 20000 nM; IC50 (Igrov-1): > 20000 nM; % Remaining at 24 h by GSH [2]: 100%; % Remaining at 24 h by Cys [3]: 100%; IC50 (KPL-4): > 10000 nM; IC50 (WSU-DLCL2): > 10000 nM
16 | CCn1cc(C(=O)O)c(=O)c2cc(F)c(N3CCN(C(=O)OCc4c(C=O)c5c(n4C)C(=O)C=C(OC)C5=O)CC3)cc21 | 82.1% | 91.5% | yes | –
